Measured values as given in patent US20250222116A1, “PARP-1 DEGRADATION AGENT AND USE THEREOF” (XIZANG HAISCO PHARMACEUTICAL CO., LTD., priority 2021, published 2025).

Assays:
PARP2 [1] = biological target: T1, PARP2 (Homo sapiens (Human), UniProt Q9UGN5); assay: PARP2 enzyme activity inhibition (chemiluminescence kit); assay type: biochemical
Procedure: PARP1, PARP2 and PARP7 chemical […] detection kits were all purchased from BPS Bioscience. The histone solution in the kit was diluted 5× with 1×PBS, and 25 μL of the diluted histone solution was added to a microwell plate and incubated overnight at 4° C. After the incubation was completed, the plate was washed three times with PBST (0.05% Tween-20). 25 μL of a blocking solution was added to the microwell plate and incubated at 25° C. for 90 minutes. After the incubation was completed, the plate was washed three times with PBST. 2.5 μL of compounds at different concentrations diluted in test buffer and 5 μL of 2.5× substrate mixed solution were added to the microwell plate. PARP1, PARP2 and PARP7 enzymes were diluted to 0.33, 0.23 and 5.00 ng/μL, respectively, 5 μL of the diluent was added to the microwell plate, and the reaction system was incubated at 25° C. for 60 minutes. After the incubation was completed, the plate was washed three times with PBST. […] ELISA ECL substrate A and substrate B were mixed at a ratio of 1:1 (v/v), 25 μL of the mixture was added to the microwell plate, and the chemiluminescence value was read using a BMG microplate reader.
Curve fitting was performed by four parameters (log(inhibitor) vs. response−Variable slope) using GraphPad Prism software, and the IC50 value was calculated.

PARP2 [2] = biological target: T1, PARP2; assay: PARP2 protein expression level in MDA-MB-231 cells; assay type: cell-based
Procedure: MDA-MB-231 cells were placed in a complete DMEM medium (supplemented with 10% FBS and 1% penicillin-streptomycin solution) and cultured at 37° C. and 5% CO2. The cells in the logarithmic growth phase were collected, the cell density was adjusted to 5×10^5 cells/well with the culture medium, and the cells were added to a 6-well cell culture plate at a volume of 1 mL/well, and cultured overnight in a 37° C., 5% CO2 incubator. On day 2, the compound to be tested was prepared to 2-fold the final concentration, 1 mL of the compounds at different concentrations were added to administration wells and a medium containing 0.2% DMSO was added to control wells, and the plate was incubated for 24 hours at 37° C. and 5% CO2. […] The supernatant was collected and the protein content was determined using the BCA method. The protein sample to be tested was diluted to 2 mg/mL, PARP2 was detected using a fully automated protein expression quantitative analyzer (ProteinSimple), and the internal reference protein was 3-actin (both antibodies were from CST). The software (Compass for SW) of the fully automated protein expression quantitative analyzer was used to process the raw data and calculate the peak area and the PARP2 expression rate relative to the control group. DC50 values were calculated using a four-parameter non-linear fitting model in Graphpad 8.3.0 software.

PARP2 [3] = biological target: T1, PARP2; assay: PARP2 protein expression level in MDA-MB-436 cells; assay type: cell-based
Procedure: MDA-MB-436 cells were placed in a complete L-15 medium (supplemented with 15% FBS; 10 μg/mL Insulin; 16 μg/mL Glutathione and 1% penicillin-streptomycin solution), and cultured at 37° C. under CO2-free conditions. The cells in the logarithmic growth phase were collected, the cell density was adjusted to 2×10^5 cells/well with the culture medium, and the cells were added to a 6-well cell culture plate at a volume of 1 mL/well and cultured overnight. On day 2, the compound to be tested was prepared to 2-fold the final concentration, 1 mL of the compounds at different concentrations were added to administration wells, a medium containing 0.2% DMSO was added to control wells, and the plate was incubated for 24 hours at 37° C. […] The supernatant was collected and the protein content was determined using the BCA method. The protein sample to be tested was diluted to 2 mg/mL, PARP2 was detected using a fully automated protein expression quantitative analyzer (ProteinSimple), and the internal reference protein was 3-actin (both antibodies were from CST). The software (Compass for SW) of the fully automated protein expression quantitative analyzer was used to process the raw data and calculate the peak area and the PARP2 expression rate relative to the control group. DC50 values were calculated using a four-parameter non-linear fitting model in Graphpad 8.3.0 software.

T1 sequence (Q9UGN5 whole entry): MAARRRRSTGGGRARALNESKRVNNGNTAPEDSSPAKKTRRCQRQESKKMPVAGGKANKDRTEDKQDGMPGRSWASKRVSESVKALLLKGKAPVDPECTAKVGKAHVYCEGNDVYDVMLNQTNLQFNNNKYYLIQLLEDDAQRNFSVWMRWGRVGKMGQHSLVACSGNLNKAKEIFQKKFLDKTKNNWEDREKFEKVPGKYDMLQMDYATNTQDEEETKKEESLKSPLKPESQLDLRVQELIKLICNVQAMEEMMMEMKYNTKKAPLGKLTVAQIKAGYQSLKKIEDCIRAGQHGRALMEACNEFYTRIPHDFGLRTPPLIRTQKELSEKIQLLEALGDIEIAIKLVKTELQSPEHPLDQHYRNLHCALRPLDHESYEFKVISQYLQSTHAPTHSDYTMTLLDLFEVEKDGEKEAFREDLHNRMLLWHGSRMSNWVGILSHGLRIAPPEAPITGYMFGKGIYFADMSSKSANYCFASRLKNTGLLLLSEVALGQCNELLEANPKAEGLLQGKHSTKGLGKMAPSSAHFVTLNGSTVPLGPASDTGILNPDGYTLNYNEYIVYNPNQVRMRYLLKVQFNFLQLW

In the case of `CCc1cc2ncc(CN3CCN(c4ccc(C(=O)NC5CCN(c6ccc7c(c6)C(=O)N(C6CCC(=O)NC6=O)C7=O)CC5)nc4)CC3)cc2[nH]c1=O` (centres unmarked) [Compound 10, N-(1-(2-(2,6-dioxopiperidin-3-yl)-1,3-dioxoisoindolin-5-yl)piperidin-4-yl)-5-(4-((7-ethyl-6-oxo-5,6-dihydro-1,5-naphthyridin-3-yl)methyl)piperazin-1-yl)picolinamide], the IC50 (PARP2 [1]) is reported as 41 nM, the “PARP1 degradation selectivity over PARP2” value (PARP2 [2]) is reported as “good PARP1 degradation selectivity” and the DC50 (PARP2 [2]; 24 hours) is reported as greater than 5 nM. The “PARP1 degradation selectivity over PARP2” value (PARP2 [3]) was “good PARP1 degradation selectivity” and the DC50 (PARP2 [3]; 24 hours) was greater than 10000 nM.
